Where two headings read alike, the source gives them in different places.
What was measured:
[1] = molecular target: T1, eDHFR (Escherichia coli, UniProt P0ABQ4); experiment: biochemical; details: for light-induced change in eDHFR inhibition (dark IC50 vs irradiated IC50): irradiation with λ1 = 365 nm;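 on all read-outs here: purified E. coli DHFR colorimetric assay, enzyme with NADPH 3 min then inhibitor (10^-12 to 10^-5 M) 7 min, rate ΔAbs/s relative to DMSO control (1% v/v), triplicates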
T1 construct: made in house; host or cells: E. cloni EXPRESS BL21 (DE3) cells (Lucigen), pT7-SC1 plasmid
Experimental: A 10 mM stock solution of the inhibitor in DMSO was divided into two parts. One half was thermally adapted with a heat gun for 1 min to obtain only the trans isomer.
The compounds were tested as eDHFR inhibitors via a colorimetric assay (Sigma-Aldrich, Catalog No. CS0340). Instead of the human DHFR protein provided in the kit, the in-house purified eDHFR was used. In a 3 mL cuvette, eDHFR (∼20 ng) was incubated with NADPH (60 μM, final) for 3 min, followed by an incubation with the inhibitor (from 10^–5 to 10^–12 M, final) for an additional 7 min. […] The concentration of DMSO in the final volume was 1% v/v for all enzymatic reactions. The measurements were performed in triplicates. For the control enzymatic reactions, eDHFR was incubated with NADPH and DMSO (1% v/v, final). […] The related control enzymatic reaction was also performed under continuous irradiation with λ1 = 390 nm light. Linear regression was performed in Microsoft Excel to calculate ΔAbs/s. % eDHFR activity was calculated as the ratio between ΔAbs/s for the sample and ΔAbs/s for the control reaction. GraphPadPrism 5.0 (GraphPad Software, Inc., version 5.00) was used for the determination of the IC50 of each inhibitor. Nonlinear regression was used for data fitting.

[2] = Thermal cis-to-trans isomerization (thermal half-life of the metastable cis isomer); assay type: physicochemical; details: for t1/2 DMSO (25 °C): thermal cis-to-trans isomerization, 20 µM; for thermal lifetime t1/2: at 25 and 37 °C
Experimental: (§1) UV–vis absorption spectra were recorded on an Agilent 8453 UV–vis Spectrophotometer. Photochemical isomerization (photoswitching) was achieved by irradiation from the side in a fluorescence quartz cuvette (width = 1.0 cm) using a custom-built (Prizmatix/Mountain Photonics) multiwavelength fiber coupled LED system (FC6-LED-WL) including the following LEDs: 365A, 390B, 420Z, 445B, 535R, 630CA. A detailed description of the setup was published by us recently.[84] Alternatively, the samples were irradiated at 340 nm using the LOT Quantum design setup with 300 W Xe-Arc lamp, using the Thorlabs FB340-10 Bandpass filter. A Quantum Northwest TC1 temperature controller was used to maintain the temperature at 25 °C during photochemical studies. To analyze the fatigue resistance of the compounds, repeated irradiation cycles were performed using alternating wavelengths. The decrease and increase of the π–π* transition band was followed by UV–vis spectroscopy (Agilent 8453) at 25 °C while stirring. To determine the thermal lifetime for the metastable cis isomer, samples were irradiated with the custom-built setup until photostationary state (PSS) was reached. Then, the cuvettes were placed in a JASCO V750 spectrophotometer with a PTC 424S/15 temperature controller, and the recovery of the π–π* transition was followed while stirring at 25 °C (for solutions in DMSO and eDHFR assay buffer) or 37 °C (for solutions in 10 mM Tris-HCl buffer pH 7.0). The data were fitted using a first-order exponential function in OriginPro 2018. For the PSD determination by ^1H NMR spectroscopy, 0.5 mL of a 2 mM solution of the respective compound in DMSO-d6 was thermally equilibrated by briefly (∼10 s) heating the sample with a heat gun. Subsequently, the sample was irradiated in a glass NMR tube with a 365 nm hand-held lamp (Spectroline ENB-280C) or the LEDs of the custom-built setup. Detailed data are reported in the SI.

[3] = Fatigue studies: repeated photoisomerization in the presence of GSH; assay type: physicochemical; details: eDHFR assay buffer, 10 mM GSH
Experimental: as §1

[4] = tested on: E. coli CS1562; experiment: Antibacterial activity assay (MIC, bacterial growth curves); assay type: cell-based, Escherichia coli; details: for MIC: Escherichia coli, E. coli CS1562, 24 h
Experimental: A culture of E. coli CS1562 was grown overnight in LB medium (10 g/L tryptone, 5 g/L yeast extract, 5 g/L NaCl) containing tetracycline (10 μg/mL) at 37 °C. The OD600 was measured, and the culture was diluted to 0.002 OD600 in LB medium. Series dilutions of the compounds were prepared in DMSO and diluted 25 times in sterile LB medium in a black sterile Eppendorf tube. […] Subsequently, the dark samples were added to the 96-well plate (100 μL, triplicates). Lastly, the LB medium containing E. coli CS1562 at 0.002 OD was added to every well (100 μL). The cells were grown overnight at 37 °C in a plate reader (Synergy H1, Biotek), and the OD600 was measured every 10 min with a 10 s shaking step before each measurement. The OD600 curves were background-corrected by subtracting the value at t = 0. […] Detailed data are reported in the SI.

[5] = Solubility in eDHFR assay buffer; assay type: physicochemical; details: aqueous with cosolvent or surfactant or cyclodextrin, with 20% DMSO as an additive
[6] = IC50 Dark, dark-adapted (thermally adapted, trans isomer)
[7] = irradiated to PSS with λ1 (340 nm for 3, 365 nm for 6-15), read-out: IC50 Light
[8] = after irradiation, read-out: DHFR inhibition IC50 (nM) after irradiation
[9] = light or radiation study, after irradiation with λ1 = 365 nm, read-out: MIC Light
[10] = light or radiation study, after irradiation, read-out: MIC (µM) after irradiation
[11] = light or radiation study, before irradiation, read-out: MIC (µM) before irradiation

T1 sequence (P0ABQ4 whole entry): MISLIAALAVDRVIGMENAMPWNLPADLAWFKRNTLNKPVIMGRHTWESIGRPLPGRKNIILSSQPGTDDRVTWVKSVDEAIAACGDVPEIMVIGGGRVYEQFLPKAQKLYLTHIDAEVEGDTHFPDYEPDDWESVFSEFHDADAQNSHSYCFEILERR

In the case of `Nc1ncc(-c2cccc(/N=N/c3ccccc3)c2)c(N)n1` [Compound 3, (E)-5-[3-(Phenyldiazenyl)phenyl]pyrimidine-2,4-diamine], the IC50 [1, 6] is reported as 280 nM, the IC50 [1, 7] is reported as 710 nM and the “t1/2 DMSO (25 °C)” value [2] is reported as over 24 h. For the same compound, the “fatigue / resistance to reduction upon repeated irradiation cycles” value [3] was “no sign of fatigue” and the melting point was 209 to 211 °C.
In the case of `COC(C)(C#Cc1cnc(N)nc1N)c1ccc(/N=N/c2ccccc2)cc1` (stereo not drawn) [Compound 6, (E)-5-{3-Methoxy-3-[4-(phenyldiazenyl)phenyl]but-1-yn-1-yl}pyrimidine-2,4-diamine], the IC50 [1, 6] is reported as 370 nM, the IC50 [1, 8] is reported as 160 ± 62 nM and the IC50 [1, 7] is reported as 160 ± 62 nM. For the same compound, the IC50 ([1]; irradiated with λ1 (1: continuous irradiation at 390 nm), read-out: IC50 Light) was 160 nM, the “light-induced change in eDHFR inhibition (dark IC50 vs irradiated IC50)” value [1] was 2 fold and the MIC [4, 9] was 20 µM. The MIC [4, 10] was 20 µM, the MIC [4, 11] was over 40 µM and the MIC ([4]; dark, read-out: MIC Dark) was over 40 µM. For the same compound, the “light-induced difference in antibacterial activity (dark MIC vs irradiated MIC)” value ([4]; irradiation with λ1 = 365 nm, E. coli CS1562) was over 2 fold, the “thermal lifetime t1/2” value [2] was over 24 h and the “t1/2 DMSO (25 °C)” value [2] was over 24 h. For the same compound, the “fatigue / resistance to reduction upon repeated irradiation cycles” value [3] was “robust photoswitching”, the solubility [5] was at most 5 µM and the melting point was 149 to 150 °C.
With `COC(C)(C#Cc1cnc(N)nc1N)c1cccc(/N=N/c2ccccc2)c1` (stereo not drawn) [Compound 7, (E)-5-{3-Methoxy-3-[3-(phenyldiazenyl)phenyl]but-1-yn-1-yl}pyrimidine-2,4-diamine] the IC50 [1, 8] was 250 ± 140 nM, the IC50 ([1]; before irradiation, read-out: DHFR inhibition IC50 (nM) before irradiation) was 190 ± 40 nM and the “light-induced change in eDHFR inhibition (dark IC50 vs irradiated IC50)” value [1] was “not significant”. The MIC [4, 9] was 20 µM, the MIC [4, 10] was 20 µM and the MIC [4, 11] was 20 µM. For the same compound, the MIC ([4]; dark, read-out: MIC Dark) was 20 µM, the “MIC / bacterial growth inhibition, same in both forms” value ([4]; both before and after irradiation with λ1 = 365 nm, E. coli CS1562) was 20 µM and the “thermal lifetime t1/2” value [2] was over 24 h. The “t1/2 DMSO (25 °C)” value [2] was over 24 h, the “fatigue / resistance to reduction upon repeated irradiation cycles” value [3] was “robust photoswitching” and the solubility [5] was at most 5 µM. For the same compound, the melting point was 105 to 107 °C.

Reference: paper PMC8958501, “Hypothesis-Driven, Structure-Based Design in Photopharmacology: The Case of eDHFR Inhibitors” (Journal of Medicinal Chemistry, 2022)
